Measurements: patent publication US6534522B2, “Subtype-selective NMDA receptor ligands and the use thereof” (Warner-Lambert Company, priority 1995, dated 2003)
Where a name gives a salt, the structure may show the parent alone. Read-outs that look alike come from different tables or passages of the source.

Experiments:
[1] = system: Maximal Electroshock-induced Seizures; experiment: Maximal electroshock-induced seizures; type: in vivo, mice; details: Mus musculus, read-out: Mes. ED50
Experimental: Maximal Electroshock-induced Seizures. Seizures were induced by application of current (50 mA, 60 pulses/sec, 0.8 sec pulse width, 1 sec duration, d.c.) through saline-coated corneal electrodes using a Ugo Basile ECT device (Model 7801). […] A tonic seizure was defined as a hindlimb extension in excess of 90 degrees from the plane of the body. Results were treated in a quantal manner.

NR1A/2A NMDA receptor = NR1A/2A NMDA receptor (Rattus norvegicus, UniProt P35439+Q00959); experiment: Xenopus oocyte expression system, two-electrode voltage clamp, NR1A/2A; type: cell-based
Chain of NR1A/2A NMDA receptor (Q00959 20-1464 limits assumed, other chains not shown): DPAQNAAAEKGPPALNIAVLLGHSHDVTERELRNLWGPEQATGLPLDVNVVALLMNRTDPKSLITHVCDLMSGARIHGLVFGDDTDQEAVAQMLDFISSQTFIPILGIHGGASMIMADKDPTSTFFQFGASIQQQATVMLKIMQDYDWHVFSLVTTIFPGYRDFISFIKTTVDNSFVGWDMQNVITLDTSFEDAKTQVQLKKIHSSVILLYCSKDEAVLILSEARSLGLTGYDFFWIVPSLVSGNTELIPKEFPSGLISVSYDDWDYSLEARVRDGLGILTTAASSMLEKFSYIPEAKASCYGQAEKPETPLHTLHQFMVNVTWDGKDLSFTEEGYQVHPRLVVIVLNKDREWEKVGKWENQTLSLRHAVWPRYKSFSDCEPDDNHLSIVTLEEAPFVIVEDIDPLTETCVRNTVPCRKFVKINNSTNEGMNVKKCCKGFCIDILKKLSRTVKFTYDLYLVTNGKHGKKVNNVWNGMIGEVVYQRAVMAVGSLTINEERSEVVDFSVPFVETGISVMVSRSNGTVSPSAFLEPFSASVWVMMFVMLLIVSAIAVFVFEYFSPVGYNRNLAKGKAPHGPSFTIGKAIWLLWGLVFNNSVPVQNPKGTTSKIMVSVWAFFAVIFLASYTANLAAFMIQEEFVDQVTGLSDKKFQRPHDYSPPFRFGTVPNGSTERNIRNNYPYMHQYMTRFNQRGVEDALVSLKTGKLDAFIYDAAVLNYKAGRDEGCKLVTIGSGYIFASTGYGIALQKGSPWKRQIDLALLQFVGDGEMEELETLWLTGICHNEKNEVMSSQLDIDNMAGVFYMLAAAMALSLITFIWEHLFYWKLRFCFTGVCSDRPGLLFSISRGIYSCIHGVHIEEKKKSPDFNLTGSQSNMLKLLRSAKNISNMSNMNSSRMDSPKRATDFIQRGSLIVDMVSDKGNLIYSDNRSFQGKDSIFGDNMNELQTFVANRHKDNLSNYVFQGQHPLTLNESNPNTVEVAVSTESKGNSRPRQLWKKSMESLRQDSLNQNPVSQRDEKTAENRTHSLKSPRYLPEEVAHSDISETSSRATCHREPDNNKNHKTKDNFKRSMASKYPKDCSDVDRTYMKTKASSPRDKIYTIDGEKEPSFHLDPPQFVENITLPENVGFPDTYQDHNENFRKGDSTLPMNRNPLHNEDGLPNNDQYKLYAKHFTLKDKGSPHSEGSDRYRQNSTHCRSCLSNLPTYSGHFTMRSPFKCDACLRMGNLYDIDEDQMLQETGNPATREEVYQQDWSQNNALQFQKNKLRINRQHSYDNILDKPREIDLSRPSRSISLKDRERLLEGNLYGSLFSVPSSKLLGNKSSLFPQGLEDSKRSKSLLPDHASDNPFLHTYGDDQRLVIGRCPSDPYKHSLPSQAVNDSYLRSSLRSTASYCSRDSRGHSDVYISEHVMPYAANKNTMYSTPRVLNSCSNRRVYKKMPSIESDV
Excerpt: (§1) Electrophysiological assays may be utilized to characterize the actions of potential subtype-selective ligands at NMDA receptors expressed in Xenopus oocytes. The ligand may be assayed at the different subunit combinations of cloned rat NMDA receptors corresponding to the four putative NMDA receptor subtypes (Moriyoshi et al., Nature (Lond.) 354:31-37 (1991); Monyer et al., Science (Washington, D.C.) 256:1217-1221 (1992); Kutsuwada et al., Nature (Lond.) 358:36-41 (1992); Sugihara et al., Biochem. Biophys. Res. Comm. 185:826-832 (1992)).
(§2) Using fixed saturating concentrations of agonists (glutamate 100 μM, glycine 1-10 μM depending on subunit combination), the inhibitory potency of a putative subtype-selective ligand may be assayed at the NMDA receptors assembled from NR1A/2A, NR1A/2B, NR1A/2C and NR1A/2D subunit combinations.
(§3) The Xenopus oocyte expression system. Mature female Xenopus laevis were anaesthetized (20-40 min) using 0.15% 3-aminobenzoic acid ethyl ester (MS-222) and 2-4 ovarian lobes were surgically removed. Oocytes at developmental stages IV-VI (Dumont, J. N., J. Morphol. 136:153-180 (1972)), were dissected from the ovary still surrounded by enveloping ovarian tissues. Follicle-enclosed oocytes were micro-injected with 1:1 mixtures of cRNA:NR1A+NR2A, 2B, 2C or 2D; injecting ˜2, 5, or 20 ng of RNA encoding each receptor subunit. NR1A encoding cRNA was injected alone at ˜20 ng. Oocytes were stored in Barth's medium containing (in mM): NaCl, 88; KCl, 1; CaCl2, 0.41; Ca(NO3)2, 0.33; MgSO4, 0.82; NaHCO3, 2.4; HEPES 5; pH 7.4, with 0.1 mg/mL gentamycin sulphate. While oocytes were still surrounded by enveloping ovarian tissues the Barth's medium was supplemented with 0.1% bovine serum. Oocytes were defolliculated 1-2 days following injections by treatment with collagenase (0.5 mg/mL Sigma Type I for 0.5-1 hr) (Miledi and Woodward, J. Physiol. (Lond.) 416:601-621 (1989)) and subsequently stored in serum-free medium.
(§4) Electrical recordings were made using a conventional two-electrode voltage clamp (Dagan TEV-200) over periods ranging between 3-21 days following injection. Oocytes were placed in a 0.1 mL recording chamber continuously perfused (5-15 mL min^−1) with frog Ringer's solution containing (in mM): NaCl, 115; KCl, 2; CaCl2, 1.8; HEPES, 5; pH 7.4. Drugs were applied by bath perfusion. When using the more rapid flow rates, half-times for mid-chamber solution changes were between 2-3 sec, however, exchange rates for drug solutions at the oocyte surface (i.e. beneath the vitelline envelope and among the tangles of microvilli) were probably considerably longer (Woodward et al., Mol. Pharmacol. 41:89-103 (1992)). Zero-Ca^2+/Ba^2+ Ringer had the composition (in mM): NaCl, 115; KCl, 2; BaCl2, 1.8; HEPES, 5; pH 7.4. Intraoocyte injections were made by pneumatic pressure-pulse ejection from micropipettes (Miledi and Parker, J. Physiol. (Lond.) 357:173-183 (1984)). Injection solutions of EGTA (40-400 mM) and BAPTA (50-500 mM) were made up in H2O, pH adjusted to 7.4 with KOH or HCl, and filtered to minimize plugging (Acrodisc-13, […]). Pressure was set between 200-400 kPa. The volume of injections was regulated by adjusting the time of pulses (0.1-1 sec) and was estimated by measuring the diameters of ejected droplets.
(§5) Concentration-inhibition curves were fit with equation 2.
(§6) I/Icontrol=1/(1+([antagonist]/10^−pIC50)^n) Eq. 2
(§7) in which Icontrol is the current evoked by agonists alone, pIC50=−log IC50, […] is the concentration of antagonist that produces half maximal inhibition, and n is the slope factor. For incomplete curves analysis by fitting was unreliable and IC50 values were calculated by simple regression over linear portions of the curves (Origin: Microcal Software).
(§8) Drugs were initially dissolved at concentrations of 10-100 mM in DMSO. Dilutions were then made to generate a series of DMSO stock solutions over the range 10 μM to 100 mM. Working solutions were made by 1000-3000 fold dilution of stocks into Ringer. […]

NR1A/2C NMDA receptor = NR1A/2C NMDA receptor (Rattus norvegicus, UniProt P35439+Q00961); experiment: Xenopus oocyte expression system, two-electrode voltage clamp, NR1A/2C; type: cell-based
Chain of NR1A/2C NMDA receptor (Q00961 20-1237, other chains not shown): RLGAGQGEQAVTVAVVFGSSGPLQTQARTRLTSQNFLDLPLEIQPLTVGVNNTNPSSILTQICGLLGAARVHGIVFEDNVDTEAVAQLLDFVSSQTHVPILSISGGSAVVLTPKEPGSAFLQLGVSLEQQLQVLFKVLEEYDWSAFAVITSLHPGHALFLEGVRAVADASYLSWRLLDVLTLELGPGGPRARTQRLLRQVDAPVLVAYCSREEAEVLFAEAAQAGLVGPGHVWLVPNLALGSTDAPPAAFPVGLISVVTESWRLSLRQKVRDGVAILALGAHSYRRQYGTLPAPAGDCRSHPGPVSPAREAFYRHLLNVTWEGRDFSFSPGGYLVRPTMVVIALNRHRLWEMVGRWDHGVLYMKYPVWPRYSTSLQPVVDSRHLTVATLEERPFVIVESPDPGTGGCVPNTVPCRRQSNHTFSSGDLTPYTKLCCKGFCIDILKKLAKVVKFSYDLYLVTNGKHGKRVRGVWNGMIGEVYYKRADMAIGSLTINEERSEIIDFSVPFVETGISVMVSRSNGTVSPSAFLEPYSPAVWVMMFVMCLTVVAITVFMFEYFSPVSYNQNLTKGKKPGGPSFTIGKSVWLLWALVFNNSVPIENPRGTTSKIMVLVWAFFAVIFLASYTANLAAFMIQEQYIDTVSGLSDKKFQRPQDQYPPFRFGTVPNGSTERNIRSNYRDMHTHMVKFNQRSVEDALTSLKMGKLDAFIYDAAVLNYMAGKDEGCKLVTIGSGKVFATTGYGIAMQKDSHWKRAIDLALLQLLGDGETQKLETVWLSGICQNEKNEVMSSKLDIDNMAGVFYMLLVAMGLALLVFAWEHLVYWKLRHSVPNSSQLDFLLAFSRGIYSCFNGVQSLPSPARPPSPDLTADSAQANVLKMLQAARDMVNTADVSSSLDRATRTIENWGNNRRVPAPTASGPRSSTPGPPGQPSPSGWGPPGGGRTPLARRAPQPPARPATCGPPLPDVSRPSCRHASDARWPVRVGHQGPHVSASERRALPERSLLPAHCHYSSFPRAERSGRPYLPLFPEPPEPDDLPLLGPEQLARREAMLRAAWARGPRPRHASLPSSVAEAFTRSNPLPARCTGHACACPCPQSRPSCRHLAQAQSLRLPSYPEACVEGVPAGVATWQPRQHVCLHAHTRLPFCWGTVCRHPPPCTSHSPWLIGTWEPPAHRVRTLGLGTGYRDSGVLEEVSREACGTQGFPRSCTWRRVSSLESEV
Excerpt: as §1, §2, §3, §4, §5, §6, §7, §8

NR1A/2B NMDA receptor = NR1A/2B NMDA receptor (Rattus norvegicus, UniProt P35439+Q00960); experiment: Xenopus oocyte expression system, two-electrode voltage clamp, NR1A/2B; type: cell-based
Chain of NR1A/2B NMDA receptor (Q00960 27-1482, other chains not shown): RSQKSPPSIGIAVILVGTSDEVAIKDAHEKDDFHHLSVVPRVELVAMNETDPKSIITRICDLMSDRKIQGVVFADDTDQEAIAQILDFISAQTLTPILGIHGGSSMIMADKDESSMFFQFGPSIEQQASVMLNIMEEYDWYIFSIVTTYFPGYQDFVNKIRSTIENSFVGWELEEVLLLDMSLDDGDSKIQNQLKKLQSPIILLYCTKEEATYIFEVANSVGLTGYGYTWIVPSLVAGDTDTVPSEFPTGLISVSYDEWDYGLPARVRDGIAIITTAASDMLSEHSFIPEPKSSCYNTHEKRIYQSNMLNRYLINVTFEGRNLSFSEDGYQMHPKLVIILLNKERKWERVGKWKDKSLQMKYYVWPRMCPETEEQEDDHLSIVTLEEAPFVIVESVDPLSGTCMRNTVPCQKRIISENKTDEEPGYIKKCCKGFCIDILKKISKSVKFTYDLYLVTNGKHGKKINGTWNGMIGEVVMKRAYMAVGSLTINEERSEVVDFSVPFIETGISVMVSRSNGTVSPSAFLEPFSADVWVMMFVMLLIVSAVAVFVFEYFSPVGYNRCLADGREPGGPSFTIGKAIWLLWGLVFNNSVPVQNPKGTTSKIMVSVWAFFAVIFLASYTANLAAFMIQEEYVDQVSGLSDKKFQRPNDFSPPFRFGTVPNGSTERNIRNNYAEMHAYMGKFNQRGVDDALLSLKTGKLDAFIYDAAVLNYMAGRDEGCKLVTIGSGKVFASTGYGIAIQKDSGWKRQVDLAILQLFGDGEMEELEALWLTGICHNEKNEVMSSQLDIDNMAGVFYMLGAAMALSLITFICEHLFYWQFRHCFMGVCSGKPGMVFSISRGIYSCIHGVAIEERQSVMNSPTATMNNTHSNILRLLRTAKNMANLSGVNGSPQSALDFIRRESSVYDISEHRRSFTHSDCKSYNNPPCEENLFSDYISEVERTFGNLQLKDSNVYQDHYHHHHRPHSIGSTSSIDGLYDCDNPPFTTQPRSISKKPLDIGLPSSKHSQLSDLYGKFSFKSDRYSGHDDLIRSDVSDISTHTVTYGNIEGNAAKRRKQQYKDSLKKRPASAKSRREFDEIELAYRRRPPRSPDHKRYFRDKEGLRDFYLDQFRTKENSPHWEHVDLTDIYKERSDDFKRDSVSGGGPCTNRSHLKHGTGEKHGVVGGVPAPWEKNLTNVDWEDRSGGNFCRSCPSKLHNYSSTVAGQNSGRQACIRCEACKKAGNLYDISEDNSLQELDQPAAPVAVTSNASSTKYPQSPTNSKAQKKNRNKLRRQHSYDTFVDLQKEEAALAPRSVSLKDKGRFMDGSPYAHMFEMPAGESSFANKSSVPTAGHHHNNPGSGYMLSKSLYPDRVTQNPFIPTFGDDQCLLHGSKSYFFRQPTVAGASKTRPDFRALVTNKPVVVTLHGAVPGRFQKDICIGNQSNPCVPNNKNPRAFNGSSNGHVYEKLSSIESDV
Excerpt: as §1, §2, §3, §4, §5, §6, §7, §8

[2] = cloned NR1A/2A subunits expressed in Xenopus oocytes, inhibition of agonist-evoked membrane current, read-out: 1A/2A IC50
[3] = cloned NR1A/2C subunits expressed in Xenopus oocytes, inhibition of agonist-evoked membrane current, read-out: 1A/2C IC50
[4] = cloned NR1A/2B subunits expressed in Xenopus oocytes, inhibition of agonist-evoked membrane current, read-out: 1A/2B IC50
[5] = mice, tonic hindlimb extensor response after corneal current 50 mA

Structure (SMILES)	ED50 [1] [mg/kg]	IC50 (NR1A/2A NMDA receptor; [2]) [µM]	IC50 (NR1A/2C NMDA receptor; [3]) [µM]	IC50 (NR1A/2B NMDA receptor; [4]) [µM]	ED50 [1, 5] [mg/kg]	melting point [°C]	IC50 (NR1A/2A NMDA receptor) [µM]	IC50 (NR1A/2C NMDA receptor) [µM]	IC50 (NR1A/2B NMDA receptor) [µM]
OCCCN1CCC(Cc2ccccc2)CC1 [Ex. 83, 4-Benzyl-1-(3-hydroxypropyl)piperidine hydrobromide]	3.5	224	> 300	1.8					
OCCCN1CCC(Cc2ccc(Cl)cc2)CC1 [Ex. 89, 4-(4-Chlorobenzyl)-1-(3-hydroxypropyl) piperidine hydrobromide]		150	> 100	0.3	5				
CC(O)CCN1CCC(Cc2ccc(F)cc2)CC1 (stereo not shown) [Ex. 91, 4-(4-Fluorobenzyl)-1-(3-hydroxybutyl) piperidine hydrochloride]	6	230	> 300	2.5					
COc1ccc(CC2CCN(CCCO)CC2)cc1 [Ex. 93, 1-(3-Hydroxypropyl)-4-(4-methoxybenzyl) piperidine hydrobromide]	8	> 300	> 300	9					
CC(O)CCN1CCC(Cc2ccc(Cl)cc2)CC1.Cl (stereo not shown) [Ex. 99, 4-(4-chlorobenzyl)-1-(3-hydroxybutyl) piperidine hydrochloride]		> 300	> 300	1.6	6	96 to 101			
CC(O)CCN1CCC(Cc2ccccc2)CC1.Cl (stereo not shown) [Ex. 100, 4-benzyl-1-(3-hydroxy-butyl) piperidine hydrochloride]	3.5					133 to 135	> 300	> 300	3
Cc1ccc(CC2CCN(CCC(C)O)CC2)cc1.Cl (stereo not shown) [Ex. 104, 4-(4-methylbenzyl)-1-(3-hydroxy-butyl) piperidine hydrochloride]		110	> 300	0.8	2	134 to 136			
